Reference: patent publication USRE48842E1, “Pyrimido-pyrrolo-oxazine-dione compound inhibitors of the cystic fibrosis transmembrane conductance regulator protein and uses therefor” (The Regents of the University of California, priority 2011, dated 2021)

biological target: T1, human wildtype CFTR (Homo sapiens, UniProt P13569); assay: Short-circuit current analysis of CFTR inhibition in CFTR-expressing FRT cells; assay type: cell-based; parameters: expressed in transfected cells; host or cells: Fischer rat thyroid (FRT) epithelial cells on Snapwell inserts; conditions: Determined by short-circuit current assay; read-out: IC50 (μM)^B
T1 sequence (P13569 whole entry): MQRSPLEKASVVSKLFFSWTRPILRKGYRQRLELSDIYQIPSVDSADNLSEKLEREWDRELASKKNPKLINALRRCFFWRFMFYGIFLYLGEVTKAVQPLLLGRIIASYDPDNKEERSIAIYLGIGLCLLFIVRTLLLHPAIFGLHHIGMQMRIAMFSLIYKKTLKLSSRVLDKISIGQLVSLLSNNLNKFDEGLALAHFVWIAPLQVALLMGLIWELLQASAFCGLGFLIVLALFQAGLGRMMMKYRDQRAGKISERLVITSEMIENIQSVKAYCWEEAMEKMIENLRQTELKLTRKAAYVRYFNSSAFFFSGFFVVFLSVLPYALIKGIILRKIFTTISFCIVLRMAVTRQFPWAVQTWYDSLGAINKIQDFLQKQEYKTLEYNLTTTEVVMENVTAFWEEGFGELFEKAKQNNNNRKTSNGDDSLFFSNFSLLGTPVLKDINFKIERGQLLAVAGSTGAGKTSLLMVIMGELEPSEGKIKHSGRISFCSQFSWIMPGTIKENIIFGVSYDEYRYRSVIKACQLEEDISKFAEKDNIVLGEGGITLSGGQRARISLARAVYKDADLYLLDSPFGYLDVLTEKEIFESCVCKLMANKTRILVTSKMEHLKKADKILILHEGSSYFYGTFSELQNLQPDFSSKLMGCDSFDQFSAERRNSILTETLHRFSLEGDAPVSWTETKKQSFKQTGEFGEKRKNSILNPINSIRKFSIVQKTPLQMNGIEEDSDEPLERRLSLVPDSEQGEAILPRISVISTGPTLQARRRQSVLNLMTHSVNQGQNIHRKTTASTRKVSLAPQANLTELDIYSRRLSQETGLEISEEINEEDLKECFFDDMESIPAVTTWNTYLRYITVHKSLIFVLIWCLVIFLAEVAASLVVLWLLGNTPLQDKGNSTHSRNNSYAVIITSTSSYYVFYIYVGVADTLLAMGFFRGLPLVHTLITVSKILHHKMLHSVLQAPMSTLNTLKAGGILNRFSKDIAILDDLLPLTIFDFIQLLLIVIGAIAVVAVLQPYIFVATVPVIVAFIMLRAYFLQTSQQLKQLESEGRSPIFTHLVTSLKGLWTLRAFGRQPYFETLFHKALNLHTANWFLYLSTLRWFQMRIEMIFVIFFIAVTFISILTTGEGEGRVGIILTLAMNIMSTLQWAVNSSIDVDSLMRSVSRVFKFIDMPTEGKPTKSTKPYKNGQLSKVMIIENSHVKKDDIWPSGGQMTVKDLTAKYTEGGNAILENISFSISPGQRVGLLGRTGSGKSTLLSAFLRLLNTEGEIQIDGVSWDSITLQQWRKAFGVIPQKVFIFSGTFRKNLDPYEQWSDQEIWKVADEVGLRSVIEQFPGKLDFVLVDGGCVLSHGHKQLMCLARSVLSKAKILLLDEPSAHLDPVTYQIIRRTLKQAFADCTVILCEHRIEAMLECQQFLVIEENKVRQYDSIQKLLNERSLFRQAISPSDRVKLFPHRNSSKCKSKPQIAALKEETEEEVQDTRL
Procedure: Short-Circuit Current—Snapwell inserts containing CFTR-expressing FRT cells were mounted in an Ussing chamber. The hemichambers contained 5 mL of buffer containing 75 mM NaCl and 75 mM Na gluconate (apical) and 150 mM NaCl (basolateral) (pH 7.3), and the basolateral membrane was permeabilized with 250 μg/mL amphotericin B, as described (see, e.g., Sonawane et al., FASEB J 2006, supra). Short-circuit current was recorded continuously using a DVC-1000 voltage clamp (World Precision Instruments) using Ag/AgCl electrodes and 3 M KCl agar bridges.
Current was measured in CFTR-expressing FRT cells in which the basolateral membrane was permeabilized and in the presence of a transepithelial chloride concentration gradient, so that current is a quantitative linear measure of CFTR function. CFTR was activated by forskolin, followed by serial additions of increasing concentrations of test compounds.
CFTR inhibition potency was measured by short-circuit current analysis in FRT epithelial cells expressing human CFTR in presence of a transepithelial chloride gradient and in which the basolateral membrane was permeabilized with amphotericin B. Under these conditions short-circuit current is proportional to CFTR chloride conductance.

Row | SMILES | IC50 [µM]
1 | CCOC(=O)c1ccc2c(c1)-n1c(-c3ccccc3)c3c(=O)n(C)c(=O)n(C)c3c1C(c1ccc(Br)o1)O2 (racemic) [BPO-25, Ethyl 6-(5-Bromofuran-2-yl)-7,9-dimethyl-8,10-dioxo-11-phenyl-7,8,9,10-tetrahydro-6H-benzo[b]pyrimido[4′,5′:3,4]pyrrolo[1,2-d][1,4]oxazine-2-carboxylate] | 0.025
2 | Cc1ccc(C2Oc3ccc([N+](=O)[O-])cc3-n3c(-c4ccccc4)c4c(=O)n(C)c(=O)n(C)c4c32)o1 (centres unmarked) [BPO-22, 7,9-Dimethyl-6-(5-methylfuran-2-yl)-2-nitro-11-phenyl-6H-benzo[b]pyrimido[4′,5′-3,4]pyrrolo[1,2-d]oxazine-8,10-(7H,9H)-dione] | 0.025

biological target: T1, human wildtype CFTR; assay: Fluorescence plate reader assay of CFTR inhibition (iodide influx); assay type: cell-based; parameters: expressed in transfected cells; host or cells: Fischer rat thyroid (FRT) cells; conditions: not given
Procedure: Cell Culture and Plate Reader Assay of CFTR Inhibition—Fischer rat thyroid (FRT) cells co-expressing human wild type CFTR and the halide indicator YFP-H148Q were cultured in 96-well black-walled microplates (Corning Costar) at a density of 20,000 cells per well in Coon's modified F12 medium containing 10% fetal bovine serum, 2 mM L-glutamine, 100 U/mL penicillin and 100 μg/mL streptomycin. CFTR chloride conductance was assayed at 48 h after plating on a FluoStar fluorescence plate reader (BMG Lab Technologies) as described (see, e.g., Ma et al., J Clin Invest. 2002, supra). Each well was washed 3 times with PBS, leaving 60 μL PBS. Test compounds were added and incubated with the cells for 45 min. Then, 5 μL of a CFTR-activating cocktail (10 μM forskolin, 100 μM IBMX, 20 μM apigenin in PBS) was added. After 15 min, each well was assayed for iodide influx by recording fluorescence continuously (200 ms per point) for 2 s (baseline) and then for 10 s after rapid addition of 160 μL of isosmolar PBS in which 137 mM chloride was replaced by iodide. The initial rate of iodide influx was computed from fluorescence data by non-linear regression.
Initial testing of the compounds for the capability to inhibit CFTR was performed using a plate-reader assay in which iodide influx was measured in FRT cells co-expressing human wild type CFTR and the iodide-sensing yellow fluorescent protein YFP-H148Q/1152L. […] Table B below provides IC50 values for PPQ and BPO compounds.
The relative IC50 values obtained from the plate reader assay are useful for comparisons. Absolute IC50 values obtained from the plate-reader assay are approximate, generally underestimating compound potency because of assay non-linearities, pH-dependent YFP fluorescence, the use of iodide instead of chloride, and compound dilution at the start of the assay (see, e.g., Galietta et al., Am. J. Physiol. Cell Physiol. 281:C1734-42 (2001)).

Row | SMILES | CFTR inhibition activity (in words)
3 | CCOC(=O)c1ccc2c(c1)-n1c(-c3ccccc3)c3c(=O)n(C)c(=O)n(C)c3c1C(c1ccc(Br)o1)O2 (racemic) [BPO-25, Ethyl 6-(5-Bromofuran-2-yl)-7,9-dimethyl-8,10-dioxo-11-phenyl-7,8,9,10-tetrahydro-6H-benzo[b]pyrimido[4′,5′:3,4]pyrrolo[1,2-d][1,4]oxazine-2-carboxylate] | excellent CFTR inhibition activity
4 | Cc1ccc(C2c3c4c(c(-c5ccccc5)n3-c3ccccc3N2C)c(=O)n(C)c(=O)n4C)o1 (centres unmarked) [PPQ-5, 5,7,9-Trimethyl-6-(5-methylfuran-2-yl)-11-phenyl-5,6-dihydropyrimido[4′,5′-3,4]pyrrolo[1,2-a]quinoxaline-8,10-(7H,9H)-dione] | weakly active

same assay, conditions: Determined by micro-plate reader assay; FRT cells co-expressing human wild type CFTR and YFP-H148Q

Row | SMILES | IC50 [nM] | IC50 (μm)^A
5 | CCOC(=O)c1ccc2c(c1)-n1c(-c3ccccc3)c3c(=O)n(C)c(=O)n(C)c3c1C(c1ccc(Br)o1)O2 (racemic) [BPO-25, Ethyl 6-(5-Bromofuran-2-yl)-7,9-dimethyl-8,10-dioxo-11-phenyl-7,8,9,10-tetrahydro-6H-benzo[b]pyrimido[4′,5′:3,4]pyrrolo[1,2-d][1,4]oxazine-2-carboxylate] | 50 | 
6 | Cn1c(=O)c2c(-c3ccccc3)n3c(c2n(C)c1=O)C(c1ccc(I)o1)Oc1ccccc1-3 (centres unmarked) [BPO-17, 7,9-Dimethyl-6-(5-iodofuran-2-yl)-11-phenyl-6Hbenzo[b]pyrimido[4′,5′-3,4]pyrrolo[1,2-d]oxazine-8,10-(7H,9H)-dione] | 500 | 
7 | Cc1ccc(C2Oc3ccccc3-n3c(-c4ccccc4)c4c(=O)n(C)c(=O)n(C)c4c32)o1 (centres unmarked) [BPO-18, 7,9-Dimethyl-6-(5-methylfuran-2-yl)-11-phenyl-6H-benzo[b]pyrimido[4′,5′-3,4]pyrrolo[1,2-d]oxazine-8,10-(7H,9H)-dione] | 150 | 
8 | Cc1cccc(-c2c3c(=O)n(C)c(=O)n(C)c3c3n2-c2ccccc2OC3c2ccc(Cl)o2)c1 (centres unmarked) [BPO-19, 6-(5-Chlorofuran-2-yl)-7,9-dimethyl-11-(m-tolyl)-6Hbenzo[b]pyrimido[4′,5′-3,4]pyrrolo[1,2-d]oxazine-8,10-(7H,9H)-dione] | 370 | 
9 | Cc1cccc(-c2c3c(=O)n(C)c(=O)n(C)c3c3n2-c2ccccc2OC3c2ccc(C)o2)c1 (centres unmarked) [BPO-20, 7,9-Dimethyl-6-(5-methylfuran-2-yl)-11-(m-tolyl)-6H-benzo[b]pyrimido[4′,5′-3,4]pyrrolo[1,2-d]oxazine-8,10-(7H,9H)-dione] | 600 | 
10 | Cc1ccc(C2Oc3ccc([N+](=O)[O-])cc3-n3c(-c4ccccc4)c4c(=O)n(C)c(=O)n(C)c4c32)o1 (centres unmarked) [BPO-22, 7,9-Dimethyl-6-(5-methylfuran-2-yl)-2-nitro-11-phenyl-6H-benzo[b]pyrimido[4′,5′-3,4]pyrrolo[1,2-d]oxazine-8,10-(7H,9H)-dione] | 100 | 
11 | Cc1ccc(C2Oc3cc([N+](=O)[O-])c(Cl)cc3-n3c(-c4ccccc4)c4c(=O)n(C)c(=O)n(C)c4c32)o1 (centres unmarked) [BPO-24, 2-Chloro-7,9-Dimethyl-6-(5-methylfuran-2-yl)-3-nitro-11-phenyl-6H-benzo[b]pyrimido[4′,5′-3,4]pyrrolo[1,2-d]oxazine-8,10-(7H,9H)-dione] | 170 | 
12 | CCOC(=O)c1ccc2c(c1)-n1c(-c3ccccc3)c3c(=O)n(C)c(=O)n(C)c3c1C(c1ccc(C)o1)O2 (centres unmarked) [BPO-26, Ethyl 7,9-Dimethyl-8,10-dioxo-6-(5-methylfuran-2-yl)-11-phenyl-7,8,9,10-tetrahydro-6H-benzo[b]pyrimido[4′,5′:3,4]pyrrolo[1,2-d][1,4]oxazine-2-carboxylate] | 80 | 
13 | Cc1ccc(C2c3c4c(c(-c5ccccc5)n3-c3ccccc3N2S(C)(=O)=O)c(=O)n(C)c(=O)n4C)o1 (centres unmarked) [PPQ-1, 7,9-Dimethyl-6-(5-methylfuran-2-yl)-5-(methylsulfonyl)-11-phenyl-5,6-dihydropyrimido[4′,5′-3,4]pyrrolo[1,2-a]quinoxaline-8,10-(7H,9H)-dione] |  | inactive
14 | Cc1ccc(C2c3c4c(c(-c5ccccc5)n3-c3ccccc3N2C(=O)CCl)c(=O)n(C)c(=O)n4C)o1 (centres unmarked) [PPQ-2, 5-(2-Chloroacetyl)-7,9-dimethyl-6-(5-methylfuran-2-yl)-11-phenyl-5,6-dihydropyrimido[4′,5′-3,4]pyrrolo[1,2-a]quinoxaline-8,10-(7H,9H)-dione] |  | inactive
15 | CC(=O)N1c2ccccc2-n2c(-c3ccccc3)c3c(=O)n(C)c(=O)n(C)c3c2C1c1ccc(C)o1 (centres unmarked) [PPQ-3, 5-Acetyl-7,9-dimethyl-6-(5-methylfuran-2-yl)-11-phenyl-5,6. -dihydropyrimido[4′,5′-3,4]pyrrolo[1,2-a]quinoxaline-8,10-(7H,9H)-dione] |  | inactive
16 | Cc1ccc(C2c3c4c(c(-c5ccccc5)n3-c3ccccc3N2N=O)c(=O)n(C)c(=O)n4C)o1 (centres unmarked) [PPQ-4, 7,9-Dimethyl-6-(5-methylfuran-2-yl)-5-nitroso-11-phenyl-5,6. -dihydropyrimido[4′,5′-3,4]pyrrolo[1,2-a]quinoxaline-8,10-(7H,9H)-dione] | 2000 | 
17 | Cc1ccc(C2c3c4c(c(-c5ccccc5)n3-c3ccccc3N2C)c(=O)n(C)c(=O)n4C)o1 (centres unmarked) [PPQ-5, 5,7,9-Trimethyl-6-(5-methylfuran-2-yl)-11-phenyl-5,6-dihydropyrimido[4′,5′-3,4]pyrrolo[1,2-a]quinoxaline-8,10-(7H,9H)-dione] | 1000 | 
18 | CCc1ccc(C2Nc3ccccc3-n3c(-c4ccccc4)c4c(=O)n(C)c(=O)n(C)c4c32)o1 (centres unmarked) [PPQ-6, 7,9-Dimethyl-6-(5-ethylfuran-2-yl)-11-phenyl-5,6-dihydropyrimido[4′,5′-3,4]pyrrolo[1,2-a]quinoxaline-8,10-(7H,9H)-dione] | 300 | 
19 | Cc1ccc(C2Nc3ccccc3-n3c(-c4ccccc4)c4c(=O)n(C)c(=O)n(C)c4c32)s1 (centres unmarked) [PPQ-7, 7,9-Dimethyl-6-(5-methylthiophene-2-yl)-11-phenyl-5,6-dihydropyrimido[4′,5′-3,4]pyrrolo[1,2-a]quinoxaline-8,10-(7H,9H)-dione] | 1700 | 
20 | Cc1cc(C2Nc3ccccc3-n3c(-c4ccccc4)c4c(=O)n(C)c(=O)n(C)c4c32)oc1C (centres unmarked) [PPQ-8, 7,9-Dimethyl-6-(4,5-dimethylfuran-2-yl)-11-phenyl-5,6-dihydropyrimido[4′,5′-3,4]pyrrolo[1,2-a]quinoxaline-8,10-(7H,9H)-dione] | 1700 | 
21 | Cn1c(=O)c2c(-c3ccccc3)n3c(c2n(C)c1=O)C(c1ccc(Cl)o1)Nc1ccccc1-3 (centres unmarked) [PPQ-9, 6(5-Chlorofuran-2-yl)-7,9-dimethyl-11-phenyl-5,6-dihydropyrimido[4′,5′-3,4]pyrrolo[1,2-a]quinoxaline-8,10-(7H,9H)-dione] | 150 | 
22 | Cn1c(=O)c2c(-c3ccccc3)n3c(c2n(C)c1=O)C(c1ccc(C(F)(F)F)o1)Nc1ccccc1-3 (centres unmarked) [PPQ-12, 7,9-Dimethyl-11-phenyl-6-(5-trifluoromethylfuran-2-yl)-5,6-dihydropyrimido[4′,5′-3,4]pyrrolo[1,2-a]quinoxaline-8,10-(7H,9H)-dione] | 350 | 
23 | Cn1c(=O)c2c(-c3ccccc3)n3c(c2n(C)c1=O)C(c1ccc(-c2ccccc2)o1)Nc1ccccc1-3 (centres unmarked) [PPQ-13, 7,9-Dimethyl-11-phenyl-6-(5-phenylfuran-2-yl)-5,6-dihydropyrimido[4′,5′-3,4]pyrrolo[1,2-a]quinoxaline-8,10-(7H,9H)-dione] |  | inactive
24 | Cn1c(=O)c2c(-c3ccccc3)n3c(c2n(C)c1=O)C(c1ccc(CO)o1)Nc1ccccc1-3 (centres unmarked) [PPQ-14, 7,9-Dimethyl-11-phenyl-6-(5-hydroxymethylfuran-2-yl)-5,6-dihydropyrimido[4′,5′-3,4]pyrrolo[1,2-a]quinoxaline-8,10-(7H,9H)-dione] |  | inactive
25 | Cn1c(=O)c2c(-c3ccccc3)n3c(c2n(C)c1=O)C(c1cc2ccccc2o1)Nc1ccccc1-3 (centres unmarked) [PPQ-15, 6-(Benzofuran-2-yl)-7,9-dimethyl-11-phenyl-5,6-dihydropyrimido[4′,5′-3,4]pyrrolo[1,2-a]quinoxaline-8,10-(7H,9H)-dione] |  | inactive
26 | Cn1c(=O)c2c(-c3ccccc3)n3c(c2n(C)c1=O)C(c1ccc(Br)o1)Nc1ccc([N+](=O)[O-])cc1-3 (centres unmarked) [PPQ-23, 6-(5-Bromofuran-2-yl)-7,9-dimethyl-2-nitro-11-phenyl-5,6-dihydropyrimido[4′,5′-3,4]pyrrolo[1,2-a]quinoxaline-8,10-(7H,9H)-dione] | 170 | 
